Measured values taken from patent US20120004172A1, “SCREENING METHOD OF ANTI-LUNG OR ESOPHAGEAL CANCER COMPOUNDS” (Oncotherapy Science, Inc., priority 2008, published 2012).

Legend:
[1] = tested on: A549 lung cancer cell line; experiment: Growth assay (MTT) after transfection of CDCA5 mutant vectors, A549; type: cell-based, human; details: MTT at 6th day after transfection; compared with mock and wild type vectors
Protocol: (§1) [FIG. 7A] The function of ERK-dependent phosphorylation sites in cancer cells. […] Growth assay was performed using A549 and LC319 lung cancer cell lines transfected with mock, wild type and CDCA5 alanine substitute vectors. MTT assay was performed at 6th day after transfection.
(§2) [FIG. 7B] The function of ERK-dependent phosphorylation sites in cancer cells. B, Growth assay was performed using LC319 and A549 lung cancer cell line which was transfected with mock, wild type and CDCA5 phospho-mimicking mutant vectors. MTT assay was performed at 6th day after transfection.
(§3) Cell growth may be measured by methods known in the art, e.g., using the MTT cell proliferation assay; briefly, cell-counting kit-8 solution (DOJINDO) is added to each dish at a concentration of 1/10 volume, and the plates are incubated at 37 degree Centigrade (C) for additional 2 hours. Absorbance is then measured at 450 nm as a reference, with a Microplate Reader 550 (BIO-RAD, Hercules, Calif.).

[2] = tested on: LC319 lung cancer cell line; experiment: Growth assay (MTT) after transfection of CDCA5 mutant vectors, LC319; type: cell-based, human; details: MTT at 6th day after transfection; compared with mock and wild type vectors
Protocol: as §1, §2, §3

CDCA5 = tested on: CDCA5
Protocol: (§4) [FIG. 5] […] B, Non-tagged CDCA5 expressing vector was transfected to HeLa cells. After starving the cells in FBS free for 20 hours, EGF stimulations were performed at 5, 10, 20, 30 minutes. 10 uM U0126 treatment was performed for 1 hour.
(§5) Cultured cervical squamous cell carcinoma HeLa cells were cultured in FCS free medium for 20 hours. Then, the cells were stimulated by […] EGF for 20 min with or without 10 micro-M MEK inhibitor U0126 (Promega).

ERK = details: EGF stimulation
Protocol: as §4
[FIG. 6A] […] A, ERK1 or ERK2 expressing vector was co-transfected with non-tagged CDCA5 expressing vector to HeLa cells. After starvation of HeLa cells in FBS free for 20 hours, the cells were stimulated with 50 ng/ml EGF for 5, 10, 20, 30 minutes, respectively. 10 uM U0126 treatment was performed for 1 hour before EGF stimulation.
as §5

[3] = cited from earlier work

## Ser209 alanine substitute: CDCA5 mutant, alanine at position 209 (SEQ ID NO: 7), expressed from transfected vector; dominant negative
[1]
  growth of A549 cells (MTT assay): inhibited the growth
[2]
  growth of LC319 cells (MTT assay): inhibited the growth

## N#CC(=C(/N)Sc1ccccc1N)/C(C#N)=C(\N)Sc1ccccc1N [U0126]
CDCA5; serum-starved HeLa cells, EGF stimulation, 10 micro-M U0126
  upper shift of endogenous CDCA5 band: completely inhibited the upper shift of CDCA5 band
CDCA5; transfected HeLa cells, 2D-Western-blotting with anti-myc antibody, U0126 treatment
  signal of spot no. 2 of myc-tagged CDCA5 increased by EGF stimulation: also reduced
CDCA5; transfected HeLa cells, 2D-Western-blotting with anti-myc antibody, pre-incubation with U0126
  EGF-induced shifted spots (no. 3 and 4) with more acidic pI of myc-tagged CDCA5: significantly reduced
ERK; HeLa cells transfected with ERK1 or ERK2 and CDCA5 vectors, 10 uM U0126 for 1 hour before EGF
  activation of exogenous ERK1 or 2 as well as endogenous ERK: but not in U0126 MEK inhibitor treatment
ERK; serum-starved HeLa cells, 10 micro-M U0126
  levels of ERK phosphorylation: reduced the levels of ERK phosphorylation

## C#Cc1cccc(Nc2ncnc3cc(OCCOC)c(OCCOC)cc23)c1 [erlotinib]
[3]; NSCLC, placebo 4.7 months (NPL 10)
  median survival: 6.7 months

## COc1cc2ncnc(Nc3ccc(F)c(Cl)c3)c2cc1OCCCN1CCOCC1 [gefitinib]
[3]; NSCLC (NPL 11)
  response rate and symptom control: superior response rate and symptom control
